Patent publication US20100086483A1, “METHOD OF MULTIDETECTOR COMPUTED TOMAGRAPHY” (Gilead Palo Alto, Inc., priority 2008, published 2010)

Test system: conscious dogs
Test: Effects of regadenoson on HR and CBF before and after metoprolol in conscious dogs
Assay type: in vivo, dog
Conditions: for Reg-induced tachycardia after metoprolol, % of control: metoprolol 1.5 mg/kg IV; for reduction of Reg-induced coronary vasodilation from control: metoprolol 1.5 mg/kg
Procedure: Five mongrel dogs were chronically instrumented for measurements of systemic hemodynamics and coronary blood flow (CBF). The effects of regadenoson (1, 2.5 and 5 μg/kg, IV) on HR and CBF were assessed before and after administration of the β1-adrenergic receptor blocker metoprolol (1.5 mg/kg). Values of peak CBF and the duration of the two-fold increase in CBF above baseline were used to assess Reg-induced coronary vasodilation.

With COCCc1ccc(OCC(O)CNC(C)C)cc1 (stereo not drawn) [metoprolol] the “Reg-induced tachycardia after metoprolol, % of control” value (Reg 1 μg/kg IV) was 55±12 % of control, the “Reg-induced tachycardia after metoprolol, % of control” value (Reg 2.5 μg/kg IV) was 54±7 % of control and the “Reg-induced tachycardia after metoprolol, % of control” value (Reg 5 μg/kg IV) was 45±4 % of control. The “reduction of Reg-induced coronary vasodilation from control” value (“reduction” for short) (Reg 1 μg/kg IV) was 11±7%, the “reduction” value (Reg 2.5 μg/kg IV) was 10±4% and the “reduction” value (Reg 5 μg/kg IV) was 21±2%.
